The values below come from the supplement of paper PMC11616607.

In the first experiment the test system is JHOS2. The experiment in a line: drug sensitivity score (DSS) from 5-point dose-response viability curve (DSS (area-under-curve based score)); higher = more sensitive (stronger growth inhibition or killing); extreme values may be limits of the assay. The note with it: exposure time: 72 h; concentration range: 5 concentrations over 10,000-fold range. A digest of the protocol: (§1)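 Each cell line and drug received a drug sensitivity score from Breeze software, where higher means more sensitive. Zero stands for no response. Scores came from CellTiter-Glo viability readings of ovarian cancer and normal ovarian cells, 1,500 per well in 384-well plates, after 3 days at 37°C, 5% CO2 with drugs at five concentrations over a 10,000-fold range.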
In the case of `COc1ccc(-c2ccc3c(N4CCOC[C@@H]4C)nc(N4CCOC[C@@H]4C)nc3n2)cc1CO` [AZD8055], the drug sensitivity score was 14.4.

With `N#Cc1ccc2[nH]c(O)c(-c3ccc(CN4CCOCC4)cn3)c2c1` [AZD-1080], the drug sensitivity score worked out at 0.

Consider `Cc1ncc(-c2ccnc(Nc3ccc(S(C)(=O)=O)cc3)n2)n1C(C)C` [AZD-5438], for which the drug sensitivity score turned out to be 7.9.

`Cc1cc([C@@H](C)Nc2ccccc2C(=O)O)c2nc(N3CCOCC3)cc(=O)n2c1` [AZD-6482] returned a drug sensitivity score of 0.

In turn, `C[C@@H](Nc1cc(F)cc(F)c1)c1cc(C(=O)N(C)C)cc2c(=O)cc(N3CCOCC3)oc12` [AZD-8186] registered a drug sensitivity score of 0.8.

Take `CCN1CCN(Cc2ccc(Nc3ncc(F)c(-c4cc(F)c5nc(C)n(C(C)C)c5c4)n3)nc2)CC1` [Abemaciclib]: the drug sensitivity score was 5.5.

As to `CN(C)Cc1c(C(=O)NCCOc2ccc(C(=O)NO)cc2)oc2ccccc12` [Abexinostat], the drug sensitivity score was determined as 11.8.

`C[C@]12CC[C@H](O)CC1=CC[C@@H]1[C@@H]2CC[C@]2(C)C(c3cccnc3)=CC[C@@H]12` [Abiraterone] registered a drug sensitivity score of 0.

`CC#CC(=O)N1CCC[C@H]1c1nc(-c2ccc(C(=O)Nc3ccccn3)cc2)c2c(N)nccn12` [Acalabrutinib]: the drug sensitivity score was determined as 0.8.

Consider `COc1cc(C)c(/C=C/C(C)=C/C=C/C(C)=C/C(=O)O)c(C)c1C` [Acitretin], for which the drug sensitivity score was 1.3.

Take `CN(C)C/C=C/C(=O)Nc1cc2c(Nc3ccc(F)c(Cl)c3)ncnc2cc1O[C@H]1CCOC1` [Afatinib]: the drug sensitivity score was 2.7.

Take `Cn1ncc(Cl)c1-c1cc(C(=O)N[C@H](CN)Cc2cccc(F)c2)sc1Cl` [Afuresertib]: the drug sensitivity score was 0.

The compound `COc1cccc2c1C(=O)c1c(O)c3c(c(O)c1C2=O)C[C@@](O)(/C(CO)=N/NC(=O)CCCCCN1C(=O)C=CC1=O)C[C@@H]3O[C@H]1C[C@H](N)[C@H](O)[C@H](C)O1` [Aldoxorubicin] showed a drug sensitivity score of 7.3.

Compound `CCc1cc2c(cc1N1CCC(N3CCOCC3)CC1)C(C)(C)c1[nH]c3cc(C#N)ccc3c1C2=O` [Alectinib] returned a drug sensitivity score of 0.

`COc1cc(Nc2ncc3c(n2)-c2ccc(Cl)cc2C(c2c(F)cccc2OC)=NC3)ccc1C(=O)O` [Alisertib]: the drug sensitivity score was 0.4.

The compound `Oc1ncnc2[nH]ncc12` [Allopurinol] yielded a drug sensitivity score of 0.

Consider `Cc1nc(NC(=O)N2CCC[C@H]2C(N)=O)sc1-c1ccnc(C(C)(C)C(F)(F)F)c1` [Alpelisib], for which the drug sensitivity score is 0.6.

Consider `O=C(Nc1cc(Oc2cc(F)c(NC(=O)C3(C(=O)Nc4ccc(F)cc4)CC3)cc2F)ccn1)C1CC1` [Altiratinib], for which the drug sensitivity score was 4.3.

As for `CN1CC[C@H](c2c(O)cc(O)c3c(=O)cc(-c4ccccc4Cl)oc23)[C@H](O)C1` [Alvocidib], the drug sensitivity score worked out at 14.

For the compound `CCN(CC)CCNC(=O)c1c(C)[nH]c(/C=C2\C(=O)Nc3ccc(-c4csc(-c5ccccc5)n4)cc32)c1C` [Amcasertib], the drug sensitivity score was found to be 0.

Regarding `CCC1(c2ccc(N)cc2)CCC(=O)NC1=O` (stereo unspecified) [Aminoglutethimide], the drug sensitivity score came out at 0.

`COc1cc(NS(C)(=O)=O)ccc1Nc1c2ccccc2nc2ccccc12` [Amsacrine]: the drug sensitivity score was 3.8.

`S=C(NCc1ccc2c(c1)OCO2)N1CCN(c2ncnc3c2oc2ccccc23)CC1` [Amuvatinib] came in with a drug sensitivity score of 0.

Take `O=C1CN2Cc3c(ccc(Cl)c3Cl)N=C2N1` [Anagrelide]: the drug sensitivity score was found to be 0.

Consider `CC(C)(C#N)c1cc(Cn2cncn2)cc(C(C)(C)C#N)c1` [Anastrozole], for which the drug sensitivity score is 0.

`CNC(=O)c1ccc(N2C(=S)N(c3cnc(C#N)c(C(F)(F)F)c3)C(=O)C23CCC3)cc1F` [Apalutamide] gave a drug sensitivity score of 0.

For the compound `N#CC1(c2ccc(NC(=O)c3cccnc3NCc3ccncc3)cc2)CCCC1` [Apatinib], the drug sensitivity score was 0.

As to `O=C(Nc1ccc(OC(F)(F)Cl)cc1)c1cnc(N2CC[C@@H](O)C2)c(-c2cc[nH]n2)c1` [Asciminib], the drug sensitivity score is 0.

Consider `CC(C)c1c(C(=O)Nc2ccccc2)c(-c2ccccc2)c(-c2ccc(F)cc2)n1CC[C@@H](O)C[C@@H](O)CC(=O)O` [Atorvastatin], for which the drug sensitivity score is 0.3.

As to `CC(=O)OC[C@H]1O[C@@H]([S-])[C@H](OC(C)=O)[C@@H](OC(C)=O)[C@@H]1OC(C)=O.CCP(CC)CC.[Au+]` [Auranofin], the drug sensitivity score turned out to be 4.1.

Take `CNC(=O)c1ccccc1Sc1ccc2c(/C=C/c3ccccn3)n[nH]c2c1` [Axitinib]: the drug sensitivity score was 0.

The subject of a further experiment is HOSE2C. The experiment is described as above. The note with it: exposure time: 72 h; concentration range: 5 concentrations over 10,000-fold range. A digest of the protocol:
as §1
Consider `COc1ccc(-c2ccc3c(N4CCOC[C@@H]4C)nc(N4CCOC[C@@H]4C)nc3n2)cc1CO` [AZD8055], for which the drug sensitivity score was determined as 16.2.

`N#Cc1ccc2[nH]c(O)c(-c3ccc(CN4CCOCC4)cn3)c2c1` [AZD-1080] returned a drug sensitivity score of 0.3.

In turn, `Cc1ncc(-c2ccnc(Nc3ccc(S(C)(=O)=O)cc3)n2)n1C(C)C` [AZD-5438] came in with a drug sensitivity score of 2.

Take `Cc1cc([C@@H](C)Nc2ccccc2C(=O)O)c2nc(N3CCOCC3)cc(=O)n2c1` [AZD-6482]: the drug sensitivity score worked out at 1.2.

In turn, `C[C@@H](Nc1cc(F)cc(F)c1)c1cc(C(=O)N(C)C)cc2c(=O)cc(N3CCOCC3)oc12` [AZD-8186] returned a drug sensitivity score of 0.3.

The compound `CCN1CCN(Cc2ccc(Nc3ncc(F)c(-c4cc(F)c5nc(C)n(C(C)C)c5c4)n3)nc2)CC1` [Abemaciclib] came in with a drug sensitivity score of 0.7.

`CN(C)Cc1c(C(=O)NCCOc2ccc(C(=O)NO)cc2)oc2ccccc12` [Abexinostat] showed a drug sensitivity score of 20.

Compound `C[C@]12CC[C@H](O)CC1=CC[C@@H]1[C@@H]2CC[C@]2(C)C(c3cccnc3)=CC[C@@H]12` [Abiraterone] yielded a drug sensitivity score of 0.

`CC#CC(=O)N1CCC[C@H]1c1nc(-c2ccc(C(=O)Nc3ccccn3)cc2)c2c(N)nccn12` [Acalabrutinib] displayed a drug sensitivity score of 0.

Compound `COc1cc(C)c(/C=C/C(C)=C/C=C/C(C)=C/C(=O)O)c(C)c1C` [Acitretin] came in with a drug sensitivity score of 0.

As for `CN(C)C/C=C/C(=O)Nc1cc2c(Nc3ccc(F)c(Cl)c3)ncnc2cc1O[C@H]1CCOC1` [Afatinib], the drug sensitivity score stood at 0.

Regarding `Cn1ncc(Cl)c1-c1cc(C(=O)N[C@H](CN)Cc2cccc(F)c2)sc1Cl` [Afuresertib], the drug sensitivity score was 2.8.

In turn, `COc1cccc2c1C(=O)c1c(O)c3c(c(O)c1C2=O)C[C@@](O)(/C(CO)=N/NC(=O)CCCCCN1C(=O)C=CC1=O)C[C@@H]3O[C@H]1C[C@H](N)[C@H](O)[C@H](C)O1` [Aldoxorubicin] gave a drug sensitivity score of 7.4.

Compound `CCc1cc2c(cc1N1CCC(N3CCOCC3)CC1)C(C)(C)c1[nH]c3cc(C#N)ccc3c1C2=O` [Alectinib] had a drug sensitivity score of 0.

Turning to `COc1cc(Nc2ncc3c(n2)-c2ccc(Cl)cc2C(c2c(F)cccc2OC)=NC3)ccc1C(=O)O` [Alisertib], the drug sensitivity score turned out to be 5.4.
